Measured values published in patent US20240226096A1, “TREATMENT OF MYELOPROLIFERATIVE DISEASES AND DISORDERS WITH INHIBITORS OF BET FAMILY BDII BROMODOMAIN” (POSEIDON INNOVATION 1, INC., priority 2022, published 2024).

Experiments:
[1] = tested on: SET-2 cell line; experiment: SET-2 cell line proliferation assay (CellTiter-Glo), combination study; format: cell-based; settings: 96 hours, FIG. 2
Description: (§1) Test compounds are dissolved at 10 mM DMSO stock solution. Transfer 45 uL of stock solution to a 384 PP-plate. Perform 3 fold, 10-point dilution via transferring 15 uL compound into 30 μL DMSO by using TECAN (EVO200) liquid handler. The plates are spin at room temperature at 1,000 RPM for 1 minute and shake at a plate shaker for 2 minutes. Transfer Compound A and Compound B of diluted compound from compound source plate into the cell plate by using liquid handler Echo665. Harvest the cells from flask into cell culture medium and then count the cell number. Dilute the cells with culture medium to the desired density and 40 μL of cell suspension is added into 384-well plate contain compound. Low control is adding cell culture medium. The final seeding density for SET-2 and BaF3-EPOR-JAK2V617F cell lines are 2,000 cells/well and 1000 cells/well respectively. Cover the plates with lid and mix the plate on orbital shaker (700-900 rpm) for 1 min, transfer the plates into 37° C. 5% CO2 incubator for 4 days culture. After compound treatment for 96 hours, remove the plate from incubators and equilibrated at room temperature for 15 minutes. Add CellTiter-Glo reagent into each well.
(§2) Place the plate on an orbital shaker, and shake at 500-700 rpm to facilitate cell lysis and ATP extraction from the cells. Measure luminescence after 5-10 minutes using BMG.

[2] = tested on: BaF3-EPOR-JAK2V617F cell line; experiment: BaF3-JAK2(V617F)-EPOR cell line proliferation assay (CellTiter-Glo), combination study; format: cell-based; settings: 96 hours, FIG. 1
Description: as §1, §2

[3] = in combination with Ruxolitinib

Cn1ccn(-c2ccc(-c3cc(F)cc(-c4cccc(N5CCN(C(C)(C)C)CC5)c4)c3O)cc2Cl)c1=O [Compound I-1, 1-(3″-(4-(tert-butyl)piperazin-1-yl)-3-chloro-5′-fluoro-2′-hydroxy-[1,1′:3′,1″-terphenyl]-4-yl)-3-methyl-1,3-dihydro-2H-imidazol-2-one]
suppresses proliferation: proliferation of the SET-2 cell line ([1]; compound alone) | proliferation of the SET-2 cell line [1, 3] | proliferation of the BaF3-EPOR-JAK2V617F cell line ([2]; compound alone) | proliferation of the BaF3-EPOR-JAK2V617F cell line [2, 3]
